The text below walks through data of patent US20240228504A1, “SUBSTITUTED TRICYCLIC AMIDES, ANALOGUES THEREOF, AND METHODS USING SAME” (Arbutus Biopharma Corporation, priority 2020, published 2024).

The test system of one experiment is HBV rcDNA in HepDE19 cells. Put plainly: HepDE19 assay with bDNA quantitation of HBV rcDNA. Conditions: HepDE19 assay, inhibition of rcDNA formation, bDNA quantitation; read-out: DE-19bDNA EC50. The experiment is classed as cell-based, hepatitis B virus.
Take `CN(C(=O)c1cc2c(Cl)cccc2[nH]1)C1COCc2[nH]c(=O)c3cc(F)ccc3c21` (single isomer, unassigned) [Compound 424, 4-Chloro-N-(8-fluoro-6-oxo-1,4,5,6-tetrahydro-2H-pyrano[3,4-c]isoquinolin-1-yl)-N-methyl-1H-indole-2-carboxamide]: the EC50 stood at 510 nM.
On the same count and under the same terms, next, `CN(C(=O)c1cc2c(Cl)cccc2[nH]1)C1COCc2[nH]c(=O)c3cc(F)ccc3c21` (single isomer, unassigned) [Compound 425, 4-Chloro-N-(8-fluoro-6-oxo-1,4,5,6-tetrahydro-2H-pyrano[3,4-c]isoquinolin-1-yl)-N-methyl-1H-indole-2-carboxamide]: 20 nM; `CN(C(=O)c1cc2c(C(F)F)cccn2c1)C1CNCc2[nH]c(=O)c3cc(F)c(F)cc3c21` (single isomer, unassigned) [Compound 430, N-(8,9-Difluoro-6-oxo-1,2,3,4,5,6-hexahydrobenzo[c][1,7]naphthyridin-1-yl)-8-(difluoromethyl)-N-methylindolizine-2-carboxamide]: 6300 nM; `CN(C(=O)c1cc2c(C(F)F)cccn2c1)C1CNCc2[nH]c(=O)c3cc(F)c(F)cc3c21` (single isomer, unassigned) [Compound 431, N-(8,9-Difluoro-6-oxo-1,2,3,4,5,6-hexahydrobenzo[c][1,7]naphthyridin-1-yl)-8-(difluoromethyl)-N-methylindolizine-2-carboxamide]: 10 nM.
On the same count and under the same terms, next, `CN(C(=O)c1cc2cccc(C(F)F)n2c1)C1CNCc2[nH]c(=O)c3cc(F)c(F)cc3c21` (single isomer, unassigned) [Compound 432, N-(8,9-Difluoro-6-oxo-1,2,3,4,5,6-hexahydrobenzo[c][1,7]naphthyridin-1-yl)-5-(difluoromethyl)-N-methylindolizine-2-carboxamide]: 23000 nM; `CN(C(=O)c1cc2cccc(C(F)F)n2c1)C1CNCc2[nH]c(=O)c3cc(F)c(F)cc3c21` (single isomer, unassigned) [Compound 433, N-(8,9-Difluoro-6-oxo-1,2,3,4,5,6-hexahydrobenzo[c][1,7]naphthyridin-1-yl)-5-(difluoromethyl)-N-methylindolizine-2-carboxamide]: 50 nM; `CN(C(=O)c1cc2c(Cl)cc(F)cc2[nH]1)C1COCc2[nH]c(=O)c3cc(F)ccc3c21` (single isomer, unassigned) [Compound 438, 4-Chloro-6-fluoro-N-(8-fluoro-6-oxo-1,4,5,6-tetrahydro-2H-pyrano[3,4-c]isoquinolin-1-yl)-N-methyl-1H-indole-2-carboxamide]: 1700 nM.
As for `CN(C(=O)c1cc2c(Cl)cc(F)cc2[nH]1)C1COCc2[nH]c(=O)c3cc(F)ccc3c21` (single isomer, unassigned) [Compound 439, 4-Chloro-6-fluoro-N-(8-fluoro-6-oxo-1,4,5,6-tetrahydro-2H-pyrano[3,4-c]isoquinolin-1-yl)-N-methyl-1H-indole-2-carboxamide], the EC50 came out at 20 nM.
For the compound `CN(C(=O)c1cc2c(Cl)cccc2[nH]1)C1CNCc2[nH]c(=O)c3cc(F)c(F)cc3c21` (single isomer, unassigned) [Compound 440, 4-Chloro-N-(8,9-difluoro-6-oxo-1,2,3,4,5,6-hexahydrobenzo[c][1,7]naphthyridin-1-yl)-N-methyl-1H-indole-2-carboxamide], the EC50 was 2200 nM.
As to `CN(C(=O)c1cc2c(Cl)cccc2[nH]1)C1CNCc2[nH]c(=O)c3cc(F)c(F)cc3c21` (single isomer, unassigned) [Compound 441, 4-Chloro-N-(8,9-difluoro-6-oxo-1,2,3,4,5,6-hexahydrobenzo[c][1,7]naphthyridin-1-yl)-N-methyl-1H-indole-2-carboxamide], the EC50 was found to be 20 nM.
Regarding `CN(C(=O)c1ccc2c(c1)CCC2)C1COCc2[nH]c(=O)c3cc(F)ccc3c21` (single isomer, unassigned) [Compound 442, N-(8-Fluoro-6-oxo-1,4,5,6-tetrahydro-2H-pyrano[3,4-c]isoquinolin-1-yl)-N-methyl-2,3-dihydro-1H-indene-5-carboxamide], the concentration for a half-maximal effect (EC50) is 19000 nM.
Take `CN(C(=O)c1ccc2c(c1)CCC2)C1COCc2[nH]c(=O)c3cc(F)ccc3c21` (single isomer, unassigned) [Compound 443, N-(8-Fluoro-6-oxo-1,4,5,6-tetrahydro-2H-pyrano[3,4-c]isoquinolin-1-yl)-N-methyl-2,3-dihydro-1H-indene-5-carboxamide]: the EC50 was 640 nM.
For `CN(C(=O)c1ccc2scnc2c1)C1COCc2[nH]c(=O)c3cc(F)ccc3c21` (single isomer, unassigned) [Compound 444, N-(8-fluoro-6-oxo-1,4,5,6-tetrahydro-2H-pyrano[3,4-c]isoquinolin-1-yl)-N-methylbenzo[d]thiazole-5-carboxamide], the EC50 stood at 12200 nM.
Turning to `CN(C(=O)c1ccc2scnc2c1)C1COCc2[nH]c(=O)c3cc(F)ccc3c21` (single isomer, unassigned) [Compound 445, N-(8-fluoro-6-oxo-1,4,5,6-tetrahydro-2H-pyrano[3,4-c]isoquinolin-1-yl)-N-methylbenzo[d]thiazole-5-carboxamide], the concentration for a half-maximal effect (EC50) came out at 700 nM.
Take `CN(C(=O)c1ccc2ncsc2c1)C1COCc2[nH]c(=O)c3cc(F)ccc3c21` (single isomer, unassigned) [Compound 446, N-(8-fluoro-6-oxo-1,4,5,6-tetrahydro-2H-pyrano[3,4-c]isoquinolin-1-yl)-N-methylbenzo[d]thiazole-6-carboxamide]: the EC50 was found to be 16000 nM.
For the compound `CN(C(=O)c1ccc2ncsc2c1)C1COCc2[nH]c(=O)c3cc(F)ccc3c21` (single isomer, unassigned) [Compound 447, N-(8-fluoro-6-oxo-1,4,5,6-tetrahydro-2H-pyrano[3,4-c]isoquinolin-1-yl)-N-methylbenzo[d]thiazole-6-carboxamide], the EC50 came to 940 nM.
On to `CN(C(=O)c1cc2sc(Cl)cc2[nH]1)C1CNCc2[nH]c(=O)c3cc(F)c(F)cc3c21` (single isomer, unassigned) [Compound 453, 2-chloro-N-(8,9-difluoro-6-oxo-1,2,3,4,5,6-hexahydrobenzo[c][1,7]naphthyridin-1-yl)-N-methyl-4H-thieno[3,2-b]pyrrole-5-carboxamide], for which the EC50 came to 2200 nM.
For the compound `CN(C(=O)c1cc2sc(Cl)cc2[nH]1)C1CNCc2[nH]c(=O)c3cc(F)c(F)cc3c21` (single isomer, unassigned) [Compound 454, 2-chloro-N-(8,9-difluoro-6-oxo-1,2,3,4,5,6-hexahydrobenzo[c][1,7]naphthyridin-1-yl)-N-methyl-4H-thieno[3,2-b]pyrrole-5-carboxamide], the EC50 was 20 nM.
With `Cc1cccc2[nH]c(C(=O)N(C)C3CNCc4[nH]c(=O)c5cc(F)c(F)cc5c43)cc12` (single isomer, unassigned) [Compound 456, N-(8,9-difluoro-6-oxo-1,2,3,4,5,6-hexahydrobenzo[c][1,7]naphthyridin-1-yl)-N,4-dimethyl-1H-indole-2-carboxamide], the EC50 came to 2200 nM.
On the same count and under the same terms, next, `Cc1cccc2[nH]c(C(=O)N(C)C3CNCc4[nH]c(=O)c5cc(F)c(F)cc5c43)cc12` (single isomer, unassigned) [Compound 457, N-(8,9-difluoro-6-oxo-1,2,3,4,5,6-hexahydrobenzo[c][1,7]naphthyridin-1-yl)-N,4-dimethyl-1H-indole-2-carboxamide]: 10 nM; `Cc1cc(F)cc2[nH]c(C(=O)N(C)C3CNCc4[nH]c(=O)c5cc(F)c(F)cc5c43)cc12` (single isomer, unassigned) [Compound 458, N-(8,9-difluoro-6-oxo-1,2,3,4,5,6-hexahydrobenzo[c][1,7]naphthyridin-1-yl)-6-fluoro-N,4-dimethyl-1H-indole-2-carboxamide]: 6600 nM; `Cc1cc(F)cc2[nH]c(C(=O)N(C)C3CNCc4[nH]c(=O)c5cc(F)c(F)cc5c43)cc12` (single isomer, unassigned) [Compound 459, N-(8,9-difluoro-6-oxo-1,2,3,4,5,6-hexahydrobenzo[c][1,7]naphthyridin-1-yl)-6-fluoro-N,4-dimethyl-1H-indole-2-carboxamide]: 10 nM.
For `CN(C(=O)c1cc2c(Cl)cc(F)cc2[nH]1)C1CNCc2[nH]c(=O)c3cc(F)c(F)cc3c21` (single isomer, unassigned) [Compound 460, 4-chloro-N-(8,9-difluoro-6-oxo-1,2,3,4,5,6-hexahydrobenzo[c][1,7]naphthyridin-1-yl)-6-fluoro-N-methyl-1H-indole-2-carboxamide], the EC50 was determined as 11200 nM.
In the case of `CN(C(=O)c1cc2c(Cl)cc(F)cc2[nH]1)C1CNCc2[nH]c(=O)c3cc(F)c(F)cc3c21` (single isomer, unassigned) [Compound 461, 4-chloro-N-(8,9-difluoro-6-oxo-1,2,3,4,5,6-hexahydrobenzo[c][1,7]naphthyridin-1-yl)-6-fluoro-N-methyl-1H-indole-2-carboxamide], the EC50 came out at 30 nM.

Still in this experiment, the particulars now being: Hepatitis B virus, HepDE19, HepDE19 assay, inhibition of rcDNA formation, bDNA quantitation; read-out: DE-19bDNA EC50.
With `CN(C(=O)c1cnc(C(F)(F)F)c(F)c1)C1CNCc2[nH]c(=O)c3cc(F)c(F)cc3c21` (single isomer, unassigned) [Compound 435, N-(8,9-Difluoro-6-oxo-1,2,3,4,5,6-hexahydrobenzo[c][1,7]naphthyridin-1-yl)-5-fluoro-N-methyl-6-(trifluoromethyl)nicotinamide], the EC50 turned out to be 260 nM.
Regarding `CN(C(=O)c1ccc2[nH]ncc2c1)C1COCc2[nH]c(=O)c3cc(F)ccc3c21` (single isomer, unassigned) [Compound 449, N-(8-fluoro-6-oxo-1,4,5,6-tetrahydro-2H-pyrano[3,4-c]isoquinolin-1-yl)-N-methyl-1H-indazole-5-carboxamide], the concentration giving a half-maximal response (EC50) was 5600 nM.
Regarding `CN(C(=O)c1ccc2scnc2c1)C1CNCc2[nH]c(=O)c3cc(F)c(F)cc3c21` (single isomer, unassigned) [Compound 463, N-(8,9-difluoro-6-oxo-1,2,3,4,5,6-hexahydrobenzo[c][1,7]naphthyridin-1-yl)-N-methylbenzo[d]thiazole-5-carboxamide], the EC50 was determined as 2000 nM.

One may read the EC50 as the concentration that produces a half-maximal response.
